Experimental data: patent US20100255089A1, “Pharmaceutical Compositions and Methods of Using Same” (priority 2006, published 2010)

Experiment: physchem
Conditions: simulated gastric fluid
Experimental: In an uncapped vial, one part of the compound of Formula I is mixed with three, four, six, or nine parts polyvinylpyrrolidone (PVP-25/Kollidon 25), respectively. The mixture is dissolved in a sufficient amount of a mixture of acetone and ethanol, until all powders were in solution. The uncapped vial is placed into a vacuum oven set at 40° C., and let dry for at least 24 hours.
After that treatment, an amorphous state of the powder is achieved, which could be identified, e.g. by X-ray diffraction measurements or by determination of the solubility.

solubility: 0.1 µg/mL
Compound: Cc1cc(C)c2c3ccccc3n(Cc3ccc([C@@H](C(=O)N[C@@H](CO)c4ccccc4)C4CCCC4)cc3)c2n1 [compound of Formula I, (2S)-2-cyclopentyl-2-(4-((2,4-dimethyl-9H-pyrido(2,3-B)indol-9-yl)methyl)-phenyl)-N-((1R)-2-hydroxy-1-phenylethyl)acetamide]
